Patent US9955691B2, “Macrocyclic picolinamides as fungicides” (DOW AGROSCIENCES LLC, priority 2014, dated 2018)
Like-named read-outs stand apart in the source and are kept apart here.

Experiments:
[1] = test system: Mycosphaerella graminicola; Anamorph: Septoria tritici; assay: Fungicidal activity: Leaf Blotch of Wheat (SEPTTR); format: in vivo; settings: Zymoseptoria tritici, wheat leaf blotch; for pest or weed control at 121.5 g/ha: Low Volume (121.5 g/H); for pest or weed control at 100 µg/mL: High Volume (100 ppm)
In short: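 Compounds were dissolved in acetone, diluted with nine volumes of water containing 110 ppm Triton X-100, and sprayed to run-off on first-leaf Yuma wheat seedlings inoculated with Septoria tritici spores before or after treatment. Plants were held in a dew chamber, then a 20° C. greenhouse. Percent control was derived from disease severity relative to untreated plants.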

Puccinia triticina = assay: Fungicidal activity: Wheat Brown Rust (PUCCRT); format: in vivo; settings: for pest or weed control at 121.5 g/ha: Low Volume (121.5 g/H); for pest or weed control at 100 µg/mL: High Volume (100 ppm)
In short: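 Wheat seedlings (Yuma, first leaf) sprayed to run-off with compound in acetone/water with Triton X-100, inoculated with Puccinia triticina before or after treatment. Held overnight in dark dew at 22° C, then greenhouse at 24° C; percent disease control from severity versus untreated plants.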

[2] = 24 h, 1 Day Protectant, read-out: SEPTTR 1 DP disease control
[3] = 72 h, 3 Day Curative, read-out: SEPTTR 3 DC disease control
[4] = 24 h, 1 Day Protectant, read-out: PUCCRT 1 DP disease control
[5] = 72 h, 3 Day Curative, read-out: PUCCRT 3 DC disease control

Which pest or weed control at 121.5 g/ha [1, 2] does the source give for CCC[C@H]1COC[C@H](NC(=O)c2nccc(OC)c2OC(C)=O)C(=O)O[C@@H](C)[C@@H]1Cc1ccc(F)cc1 [compound 107] here?
Its pest or weed control at 121.5 g/ha is over 70%.

What about the pest or weed control at 121.5 g/ha [1, 3] of the same compound?
Its pest or weed control at 121.5 g/ha is over 70%.

What about the pest or weed control at 121.5 g/ha (Puccinia triticina; [4]) of the same compound?
Its pest or weed control at 121.5 g/ha is over 70%.

What about the pest or weed control at 121.5 g/ha (Puccinia triticina; [5]) of the same compound?
The pest or weed control at 121.5 g/ha was over 70%.

And the melting point?
Its melting point is 57 to 62 °C.

What does the source list for CCC[C@H]1COC[C@H](NC(=O)c2nccc(OC)c2OCOC(C)=O)C(=O)O[C@@H](C)[C@@H]1Cc1ccc(F)cc1 [compound 108]?
pest or weed control at 121.5 g/ha [1, 2]: > 70%; pest or weed control at 121.5 g/ha [1, 3]: > 70%; pest or weed control at 121.5 g/ha (Puccinia triticina; [4]): > 70%; pest or weed control at 121.5 g/ha (Puccinia triticina; [5]): > 70%; melting point: 38 to 43 °C

Which results are given for COc1ccnc(C(=O)N[C@H]2COC[C@H](Cc3ccccc3)[C@@H](Cc3ccccc3)[C@@H](C)OC2=O)c1O [compound 111]?
pest or weed control at 100 µg/mL [1, 2]: > 70%; pest or weed control at 100 µg/mL [1, 3]: < 70%; pest or weed control at 100 µg/mL (Puccinia triticina; [4]): > 70%; pest or weed control at 100 µg/mL (Puccinia triticina; [5]): > 70%; melting point: 201 to 204 °C

With COc1ccnc(C(=O)N[C@H]2COC[C@H](CCc3ccccc3)[C@@H](CCc3ccccc3)[C@H](C)OC2=O)c1O [compound 113] as the compound, how does the pest or weed control at 100 µg/mL [1, 2] read?
The pest or weed control at 100 µg/mL was over 70%.

What about the pest or weed control at 100 µg/mL [1, 3] of the same compound?
The pest or weed control at 100 µg/mL was over 70%.

What about the pest or weed control at 100 µg/mL (Puccinia triticina; [4]) of the same compound?
The pest or weed control at 100 µg/mL was over 70%.

What about the pest or weed control at 100 µg/mL (Puccinia triticina; [5]) of the same compound?
The pest or weed control at 100 µg/mL was under 70%.

What about the melting point of the same compound?
The melting point was 52 to 56 °C.

With COc1ccnc(C(=O)N[C@H]2COC[C@H](c3ccccc3)[C@@H](c3ccccc3)[C@H](C)OC2=O)c1O [compound 116] as the compound, how does the pest or weed control at 100 µg/mL [1, 2] read?
The pest or weed control at 100 µg/mL was over 70%.

What about the pest or weed control at 100 µg/mL [1, 3] of the same compound?
The pest or weed control at 100 µg/mL was under 70%.

And the pest or weed control at 100 µg/mL (Puccinia triticina; [4])?
The pest or weed control at 100 µg/mL was over 70%.

And the pest or weed control at 100 µg/mL (Puccinia triticina; [5])?
Its pest or weed control at 100 µg/mL is over 70%.

What about the melting point of the same compound?
The melting point was 64 to 72 °C.

Which pest or weed control at 100 µg/mL [1, 2] does the source give for COc1ccnc(C(=O)N[C@H]2COC[C@H](CC3CCCCC3)[C@@H](CC3CCCCC3)[C@H](C)OC2=O)c1O [compound 119] here?
Its pest or weed control at 100 µg/mL is over 70%.

And the pest or weed control at 100 µg/mL [1, 3]?
Its pest or weed control at 100 µg/mL is under 70%.

What about the pest or weed control at 100 µg/mL (Puccinia triticina; [4]) of the same compound?
The pest or weed control at 100 µg/mL was over 70%.

What about the pest or weed control at 100 µg/mL (Puccinia triticina; [5]) of the same compound?
Its pest or weed control at 100 µg/mL is over 70%.

And the melting point?
The melting point was 69 to 75 °C.

For COc1cccc(C[C@H]2COC[C@H](NC(=O)c3nccc(OC)c3O)C(=O)O[C@@H](C)[C@@H]2Cc2cccc(OC)c2)c1 [compound 124], which pest or weed control at 100 µg/mL [1, 2] is on record?
Its pest or weed control at 100 µg/mL is under 70%.

What about the pest or weed control at 100 µg/mL [1, 3] of the same compound?
The pest or weed control at 100 µg/mL was under 70%.

And the pest or weed control at 100 µg/mL (Puccinia triticina; [4])?
The pest or weed control at 100 µg/mL was over 70%.

And the pest or weed control at 100 µg/mL (Puccinia triticina; [5])?
The pest or weed control at 100 µg/mL was under 70%.

And the melting point?
Its melting point is 62 to 65 °C.

Which pest or weed control at 100 µg/mL [1, 2] does the source give for COc1ccnc(C(=O)N[C@H]2COC[C@H](Cc3ccccc3)[C@@H](Cc3ccc(OC(F)(F)F)cc3)[C@H](C)OC2=O)c1O [compound 131] here?
The pest or weed control at 100 µg/mL was over 70%.

What about the pest or weed control at 100 µg/mL [1, 3] of the same compound?
Its pest or weed control at 100 µg/mL is over 70%.

And the pest or weed control at 100 µg/mL (Puccinia triticina; [4])?
Its pest or weed control at 100 µg/mL is over 70%.

What about the pest or weed control at 100 µg/mL (Puccinia triticina; [5]) of the same compound?
Its pest or weed control at 100 µg/mL is over 70%.

And the melting point?
The melting point was 63 to 69 °C.

What does the source list for COc1ccnc(C(=O)N[C@H]2COC[C@H](Cc3ccccc3)[C@@H](c3ccccc3)[C@H](C)OC2=O)c1O [compound 132]?
pest or weed control at 100 µg/mL [1, 2]: > 70%; pest or weed control at 100 µg/mL [1, 3]: > 70%; pest or weed control at 100 µg/mL (Puccinia triticina; [4]): > 70%; pest or weed control at 100 µg/mL (Puccinia triticina; [5]): > 70%; melting point: 185 to 190 °C

Which pest or weed control at 100 µg/mL [1, 2] does the source give for COc1ccnc(C(=O)N[C@H]2COC[C@H](Cc3ccc(Cl)cc3)[C@@H](Cc3ccc(OC(F)(F)F)cc3)[C@H](C)OC2=O)c1O [compound 137] here?
The pest or weed control at 100 µg/mL was under 70%.

And the pest or weed control at 100 µg/mL [1, 3]?
The pest or weed control at 100 µg/mL was over 70%.

And the pest or weed control at 100 µg/mL (Puccinia triticina; [4])?
Its pest or weed control at 100 µg/mL is over 70%.

And the pest or weed control at 100 µg/mL (Puccinia triticina; [5])?
Its pest or weed control at 100 µg/mL is under 70%.

And the melting point?
The melting point was 64 to 68 °C.

With COc1ccnc(C(=O)N[C@H]2COC[C@H](CCCc3ccccc3)[C@@H](CCc3ccccc3)[C@H](C)OC2=O)c1O [compound 139] as the compound, how does the pest or weed control at 100 µg/mL [1, 2] read?
The pest or weed control at 100 µg/mL was under 70%.

What about the pest or weed control at 100 µg/mL [1, 3] of the same compound?
The pest or weed control at 100 µg/mL was under 70%.

What about the pest or weed control at 100 µg/mL (Puccinia triticina; [4]) of the same compound?
Its pest or weed control at 100 µg/mL is over 70%.

And the pest or weed control at 100 µg/mL (Puccinia triticina; [5])?
The pest or weed control at 100 µg/mL was under 70%.

What about the melting point of the same compound?
The melting point was 48 to 52 °C.

For COc1ccnc(C(=O)N[C@H]2COC[C@H](CC3CC3)[C@@H](Cc3ccccc3)[C@H](C)OC2=O)c1O [compound 140], which pest or weed control at 100 µg/mL [1, 2] is on record?
The pest or weed control at 100 µg/mL was over 70%.

And the pest or weed control at 100 µg/mL [1, 3]?
The pest or weed control at 100 µg/mL was under 70%.

And the pest or weed control at 100 µg/mL (Puccinia triticina; [4])?
Its pest or weed control at 100 µg/mL is over 70%.

What about the pest or weed control at 100 µg/mL (Puccinia triticina; [5]) of the same compound?
Its pest or weed control at 100 µg/mL is under 70%.

And the melting point?
Its melting point is 56 to 61 °C.

With COc1ccnc(C(=O)N[C@H]2COC[C@H](Cc3ccc(C(F)(F)F)cc3)[C@@H](CC(C)C)[C@H](C)OC2=O)c1O [compound 141] as the compound, how does the pest or weed control at 100 µg/mL [1, 2] read?
Its pest or weed control at 100 µg/mL is over 70%.

And the pest or weed control at 100 µg/mL [1, 3]?
The pest or weed control at 100 µg/mL was over 70%.

And the pest or weed control at 100 µg/mL (Puccinia triticina; [4])?
The pest or weed control at 100 µg/mL was over 70%.

And the pest or weed control at 100 µg/mL (Puccinia triticina; [5])?
Its pest or weed control at 100 µg/mL is over 70%.

What about the melting point of the same compound?
Its melting point is 66 to 71 °C.

With COc1ccnc(C(=O)N[C@H]2COC[C@H](Cc3ccc(Cl)cc3)[C@@H](C3CCCC3)[C@H](C)OC2=O)c1O [compound 149] as the compound, how does the pest or weed control at 100 µg/mL [1, 2] read?
The pest or weed control at 100 µg/mL was over 70%.

And the pest or weed control at 100 µg/mL [1, 3]?
The pest or weed control at 100 µg/mL was over 70%.

What about the pest or weed control at 100 µg/mL (Puccinia triticina; [4]) of the same compound?
Its pest or weed control at 100 µg/mL is over 70%.

What about the pest or weed control at 100 µg/mL (Puccinia triticina; [5]) of the same compound?
Its pest or weed control at 100 µg/mL is over 70%.

And the melting point?
The melting point was 80 to 84 °C.

Which pest or weed control at 100 µg/mL [1, 2] does the source give for COc1ccnc(C(=O)N[C@H]2COC[C@H](CCC(C)C)[C@@H](C3CCCC3)[C@H](C)OC2=O)c1O [compound 150] here?
The pest or weed control at 100 µg/mL was over 70%.

What about the pest or weed control at 100 µg/mL [1, 3] of the same compound?
The pest or weed control at 100 µg/mL was over 70%.

What about the pest or weed control at 100 µg/mL (Puccinia triticina; [4]) of the same compound?
Its pest or weed control at 100 µg/mL is over 70%.

What about the pest or weed control at 100 µg/mL (Puccinia triticina; [5]) of the same compound?
Its pest or weed control at 100 µg/mL is over 70%.

And the melting point?
The melting point was 38 to 43 °C.

With COc1ccnc(C(=O)N[C@H]2COC[C@H](Cc3ccccc3)[C@@H](COc3ccccc3)[C@H](C)OC2=O)c1O [compound 151] as the compound, how does the pest or weed control at 100 µg/mL [1, 2] read?
Its pest or weed control at 100 µg/mL is over 70%.

And the pest or weed control at 100 µg/mL [1, 3]?
The pest or weed control at 100 µg/mL was over 70%.

And the pest or weed control at 100 µg/mL (Puccinia triticina; [4])?
Its pest or weed control at 100 µg/mL is over 70%.

And the pest or weed control at 100 µg/mL (Puccinia triticina; [5])?
Its pest or weed control at 100 µg/mL is under 70%.

What about the melting point of the same compound?
Its melting point is 68 to 73 °C.

Which pest or weed control at 100 µg/mL [1, 2] does the source give for CCC[C@H]1COC[C@H](NC(=O)c2nccc(OC)c2O)C(=O)O[C@@H](C)[C@@H]1Cc1ccc(F)cc1 [compound 155] here?
The pest or weed control at 100 µg/mL was over 70%.

And the pest or weed control at 100 µg/mL [1, 3]?
The pest or weed control at 100 µg/mL was over 70%.

What about the pest or weed control at 100 µg/mL (Puccinia triticina; [4]) of the same compound?
The pest or weed control at 100 µg/mL was over 70%.

What about the pest or weed control at 100 µg/mL (Puccinia triticina; [5]) of the same compound?
The pest or weed control at 100 µg/mL was under 70%.

And the melting point?
The melting point was 43 to 48 °C.
